The text below walks through data of PMC6389962 (Nature Communications, 2019).

Read-outs that look alike come from different tables or passages of the source. Starred links: 1 amine or outer side, 2 acyl side, 3 side chain; linkers in the order of their positions; H or OH if unused. Positions of bridges follow the written chain, without caps; N, C: chain ends. Residues, ends and D or L forms follow the SMILES beside them. Chains are numbered I, II in the order given. X4 = C[C@@H](CNC(=O)N[C@@H](C)CNC(=O)[*:2])NC(=O)NC[C@H](CCC(=O)O)N[*:1]

One series concerns normal mice (C57BL/6J). The series can be described thus: Blood glucose study in normal fed mice. Format: in vivo, mouse. On the set-up: key to In vivo activity (indicator): + active; +++: + + + more active. The settings on record: for effect on blood glucose concentration: normal fed C57BL/6J mice, n = 3, 5 μg per mouse (50 nmol kg−1) i.v., monitored 6 h. The procedure:
In the first study, we evaluated the effect of the analogues on the blood glucose concentration of normal mice (Fig. 3). The fed mice were treated with the analogues and their blood glucose concentration was monitored before and after dosing for 6 h. […] Indeed, a decrease of blood glucose concentration is observed after 30 min and the effect is preserved for 4 h after dosing.
Fig. 3 Blood glucose study in mice. a–c Blood glucose concentration in normal mice (C57BL/6J, male, 20–25 g, n = 3) before and after dosing: 5 μg per mouse (50 nmol kg^−1) i.v. Formulation: 20 μg mL^−1 in PBS 1×. The dosing was done at T0. Data are mean ± SEM. […] Source data are provided as a Source Data file
After the acclimation period (at least 5 days), mice (male C57BL/6J mice (Charles River laboratories) 8 weeks old, 20–25 g) were randomized into 10 groups (n = 3 per group) according to their body weight. They were acutely treated via i.v. route at 10 am (5 µg per mouse). Blood glucose was measured before dosing and at 30 min, 1, 2, 4, 6 h after dosing in fed conditions.

The target of series [1] is T1, mouse GLP-1 receptor (Mus musculus, UniProt O35659).
T1 sequence (O35659 22-463): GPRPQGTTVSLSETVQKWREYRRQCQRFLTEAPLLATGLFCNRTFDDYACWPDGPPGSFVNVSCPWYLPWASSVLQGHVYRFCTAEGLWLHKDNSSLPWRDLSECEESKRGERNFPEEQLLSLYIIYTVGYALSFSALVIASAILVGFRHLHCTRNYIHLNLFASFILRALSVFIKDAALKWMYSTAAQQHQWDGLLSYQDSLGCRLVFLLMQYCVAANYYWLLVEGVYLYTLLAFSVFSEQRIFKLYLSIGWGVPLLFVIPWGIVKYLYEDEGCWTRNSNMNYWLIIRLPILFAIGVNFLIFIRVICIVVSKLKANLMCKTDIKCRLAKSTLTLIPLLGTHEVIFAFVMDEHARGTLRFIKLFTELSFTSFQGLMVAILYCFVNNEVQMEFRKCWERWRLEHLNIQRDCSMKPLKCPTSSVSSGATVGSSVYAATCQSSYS
The series can be described thus: cell-based. The following applies: for Emax: 14: experiment 1.

For series [2], the target named is T1, mouse GLP-1 receptor. The settings on record: for Potency (%), percentage of potency compare to GLP-1-G^2: cAMP production, from EC50.
The nature of a further series: in vitro. The settings on record: mouse, plasma, pH 7.4, % remaining analogue. As to the method: The oligomer was then diluted 1/50 with a solution of plasma/PBS pH 7.4 (1:1) to afford a final concentration of 5 µM and incubated at 37 °C (4 µL of the stock solution was diluted with 196 µL of plasma/PBS, pH 7.4, 1:1). Each compound was also incubated in the absence of plasma (196 µL of H2O/PBS, pH 7.4, 1:1). At the indicated time (20 min and 60 min) an aliquot of 70 µL was removed from each experimental reaction and pipetting into 175 µL of acetonitrile at 0 °C to quench the reaction (t = 0 min was determined using the reaction without plasma). The samples were frozen at –80 °C before analysis. The frozen samples were defrosted, stirred with a vortex 5 min and finally centrifuged 5 min at 16 °C (1500 × g). The supernatant was analysed by LC-MS. The time course of oligomer degradation was determined by integrating the area of the peak in the extracted ion chromatogram.
Supplementar y Figur e 2 : Mouse plasma degradation assay. […] Data are
mean ± SEM, n = 4. Source data are provided as a Source Data file (T able 2 tab).
Supplementar y Figur e 3.
Data are mean ± SEM, n = 3.
Source data are provided as a Source Data file […]

[3] abbreviates: read-out: Top (best-fit value), variable slope four-parameter fit, unconstrained.

By EC50 is commonly meant the concentration at which the effect is half-maximal. The share remaining is what is left of the initial amount, in per cent. `CC[C@H](C)[C@H](NC(=O)[C@H](Cc1ccccc1)NC(=O)[C@H](CCC(=O)O)NC(=O)[C@H](CCCCN)NC(=O)[C@H](C)NC(=O)[C@H](C)NC(=O)[C@H](CCC(N)=O)NC(=O)CNC(=O)[C@H](CCC(=O)O)NC(=O)NC[C@H](C)NC(=O)NC[C@H](Cc1ccc(O)cc1)NC(=O)NC[C@H](C)NC(=O)[C@@H](NC(=O)[C@H](CC(=O)O)NC(=O)[C@H](CO)NC(=O)[C@@H](NC(=O)[C@H](Cc1ccccc1)NC(=O)[C@@H](NC(=O)CNC(=O)[C@H](CCC(=O)O)NC(=O)CNC(=O)[C@@H](N)Cc1c[nH]cn1)[C@@H](C)O)[C@@H](C)O)C(C)C)C(=O)N[C@@H](C)C(=O)N[C@@H](Cc1c[nH]c2ccccc12)C(=O)N[C@@H](CC(C)C)C(=O)N[C@H](C(=O)N[C@@H](CCCCN)C(=O)NCC(=O)N[C@@H](CCCNC(=N)N)C(=O)NCC(N)=O)C(C)C` [compound 5, GG2[A^uY^uA^u]^11-14]: the “In vivo activity (indicator)” value in the series with normal mice (C57BL/6J) (mice, 50 nmol kg−1 i.v.) is on record as “+”. Also, the “effect on blood glucose concentration” value in the series on normal mice (C57BL/6J) is “showed efficacy but no improvement”. At mouse GLP-1 receptor [1], this molecule gave a concentration giving a half-maximal response (EC50) of 1.6 nM. In addition, at mouse GLP-1 receptor [1] (setting [3]), the Emax is 89.4%. On mouse GLP-1 receptor [2], the “LogEC50 (best-fit value)” value is -8.806 and the “Potency (%), percentage of potency compare to GLP-1-G^2” value (“Potency (%), percentage” for short) was found to be 15%. Moreover, in “in vitro”, the amount remaining at 20 min, 5 µM was determined as 55% and the amount remaining at 1 h, 5 µM worked out at 33.6%.

On to `CC[C@H](C)[C@H](NC(=O)[C@H](Cc1ccccc1)NC(=O)[C@H](CCC(=O)O)NC(=O)[C@H](CCCCN)NC(=O)[C@H](C)NC(=O)NC[C@H](C)NC(=O)NC[C@H](C)NC(=O)NC[C@H](CCC(=O)O)NC(=O)[C@H](CC(C)C)NC(=O)[C@H](Cc1ccc(O)cc1)NC(=O)[C@H](CO)NC(=O)[C@H](CO)NC(=O)[C@@H](NC(=O)[C@H](CC(=O)O)NC(=O)[C@H](CO)NC(=O)[C@@H](NC(=O)[C@H](Cc1ccccc1)NC(=O)[C@@H](NC(=O)CNC(=O)[C@H](CCC(=O)O)NC(=O)CNC(=O)[C@@H](N)Cc1c[nH]cn1)[C@@H](C)O)[C@@H](C)O)C(C)C)C(=O)N[C@@H](C)C(=O)N[C@@H](Cc1c[nH]c2ccccc12)C(=O)N[C@@H](CC(C)C)C(=O)N[C@H](C(=O)N[C@@H](CCCCN)C(=O)NCC(=O)N[C@@H](CCCNC(=N)N)C(=O)NCC(N)=O)C(C)C` [compound 11, GG2[E^uA^uA^u]^15-18] (I: H-HGEGTFTSDVSSYL / II: AKEFIAWLVKGRG-NH2; linker I:C-II:N via X4), for which, at mouse GLP-1 receptor [2], the “LogEC50 (best-fit value)” value is recorded as -8.721 and the “Potency (%), percentage” value was found to be 13%. In the series “in vitro”, this molecule gave an amount remaining at 20 min, 5 µM of 44.7% and a fraction remaining at 1 h, 5 µM of 31.1%.

As for `CC[C@H](C)[C@H](NC(=O)[C@H](Cc1ccccc1)NC(=O)[C@H](CCC(=O)O)NC(=O)NC[C@H](C)NC(=O)NC[C@H](C)NC(=O)NC[C@H](C)NC(=O)CNC(=O)[C@H](CCC(=O)O)NC(=O)[C@H](CC(C)C)NC(=O)[C@H](Cc1ccc(O)cc1)NC(=O)[C@H](CO)NC(=O)[C@H](CO)NC(=O)[C@@H](NC(=O)[C@H](CC(=O)O)NC(=O)[C@H](CO)NC(=O)[C@@H](NC(=O)[C@H](Cc1ccccc1)NC(=O)[C@@H](NC(=O)CNC(=O)[C@H](CCC(=O)O)NC(=O)CNC(=O)[C@@H](N)Cc1c[nH]cn1)[C@@H](C)O)[C@@H](C)O)C(C)C)C(=O)N[C@@H](C)C(=O)N[C@@H](Cc1c[nH]c2ccccc12)C(=O)N[C@@H](CC(C)C)C(=O)N[C@H](C(=O)N[C@@H](CCCCN)C(=O)NCC(=O)N[C@@H](CCCNC(=N)N)C(=O)NCC(N)=O)C(C)C` [compound 13, GG2[A^uA^uA^u]^17-20], it took 1600 nM to reach a half-maximal effect on mouse GLP-1 receptor [1] (EC50). Further, at mouse GLP-1 receptor [1] (setting [3]), the Emax was 57.7%. Besides, at mouse GLP-1 receptor [2], the “LogEC50 (best-fit value)” value was -5.795.

For `CC[C@H](C)[C@@H](CNC(=O)N[C@@H](C)CNC(=O)N[C@@H](CC(C)C)C(=O)N[C@H](C(=O)N[C@@H](CCCCN)C(=O)NCC(=O)N[C@@H](CCCNC(=N)N)C(=O)NCC(N)=O)C(C)C)NC(=O)N[C@@H](CNC(=O)[C@H](CCC(=O)O)NC(=O)[C@H](CCCCN)NC(=O)[C@H](C)NC(=O)[C@H](C)NC(=O)[C@H](CCC(N)=O)NC(=O)CNC(=O)[C@H](CCC(=O)O)NC(=O)[C@H](CC(C)C)NC(=O)[C@H](Cc1ccc(O)cc1)NC(=O)[C@H](CO)NC(=O)[C@H](CO)NC(=O)[C@@H](NC(=O)[C@H](CC(=O)O)NC(=O)[C@H](CO)NC(=O)[C@@H](NC(=O)[C@H](Cc1ccccc1)NC(=O)[C@@H](NC(=O)CNC(=O)[C@H](CCC(=O)O)NC(=O)CNC(=O)[C@@H](N)Cc1c[nH]cn1)[C@@H](C)O)[C@@H](C)O)C(C)C)Cc1ccccc1` [compound 16, GG2[F^uαf^uA^u]^22-25], the “effect on blood glucose concentration” value in the series on normal mice (C57BL/6J) is listed as “showed no activity”. On mouse GLP-1 receptor [1], this molecule gave a half-maximal effective concentration (EC50) of 62 nM. The Emax on mouse GLP-1 receptor [1] (read-out: Top (best-fit value), fit with BOTTOM = 0%) turned out to be 228%. Besides, on mouse GLP-1 receptor [2], the “Potency (%), percentage” value is reported as 0.4%. This molecule also yielded an amount remaining at 1 h, 5 µM in “in vitro” of 41.6%.

As to `CC(C)C[C@H](NC(=O)[C@H](Cc1ccc(O)cc1)NC(=O)[C@H](CO)NC(=O)[C@H](CO)NC(=O)[C@@H](NC(=O)[C@H](CC(=O)O)NC(=O)[C@H](CO)NC(=O)[C@@H](NC(=O)[C@H](Cc1ccccc1)NC(=O)[C@@H](NC(=O)CNC(=O)[C@H](CCC(=O)O)NC(=O)CNC(=O)[C@@H](N)Cc1c[nH]cn1)[C@@H](C)O)[C@@H](C)O)C(C)C)C(=O)N[C@@H](CCC(=O)O)C(=O)NCC(=O)N[C@@H](CCC(N)=O)C(=O)N[C@@H](C)C(=O)N[C@@H](C)C(=O)N[C@@H](CCCCN)C(=O)N[C@@H](CCC(=O)O)C(=O)N[C@@H](Cc1ccccc1)C(=O)N[C@@H](C)CNC(=O)N[C@@H](C)CNC(=O)N[C@@H](C)CNC(=O)N[C@H](C(=O)N[C@@H](CCCCN)C(=O)NCC(=O)N[C@@H](CCCNC(=N)N)C(=O)NCC(N)=O)C(C)C` [compound 17, GG2[A^uA^uA^u]^23-26], at mouse GLP-1 receptor [1], a half-maximal effect (EC50) was put at 3930 nM. Besides, at mouse GLP-1 receptor [1] (setting [3]), the Emax turned out to be 98.7%. Besides, on mouse GLP-1 receptor [2], the “LogEC50 (best-fit value)” value is -5.406 and the “Potency (%), percentage” value is on record as 0.01%.

As for `CC[C@H](C)[C@H](NC(=O)[C@H](Cc1ccccc1)NC(=O)[C@H](CCC(=O)O)NC(=O)[C@H](CCCCN)NC(=O)[C@H](C)NC(=O)[C@H](C)NC(=O)[C@H](CCC(N)=O)NC(=O)CNC(=O)[C@H](CCC(=O)O)NC(=O)[C@H](CC(C)C)NC(=O)[C@H](Cc1ccc(O)cc1)NC(=O)[C@H](CO)NC(=O)[C@H](CO)NC(=O)[C@@H](NC(=O)[C@H](CC(=O)O)NC(=O)[C@H](CO)NC(=O)[C@@H](NC(=O)[C@H](Cc1ccccc1)NC(=O)[C@@H](NC(=O)CNC(=O)[C@H](CCC(=O)O)NC(=O)CNC(=O)[C@@H](N)Cc1c[nH]cn1)[C@@H](C)O)[C@@H](C)O)C(C)C)C(=O)N[C@@H](C)CNC(=O)N[C@@H](C)CNC(=O)N[C@@H](C)CNC(=O)N[C@@H](CCCCN)C(=O)NCC(=O)N[C@@H](CCCNC(=N)N)C(=O)NCC(N)=O` [compound 18, GG2[A^uA^uA^u]^24-27], the half-maximal effective concentration (EC50) on mouse GLP-1 receptor [1] was above 10000 nM. Also, on mouse GLP-1 receptor [1] (setting [3]), the Emax came out at 198%. Besides, on mouse GLP-1 receptor [2], the “Potency (%), percentage” value is given as below 0.01%.
